Test results as given in US20220323406A1, “METHODS AND COMPOSITIONS FOR DIFFERENTIATING STEM CELLS” (Massachusetts Institute of Technology, priority 2019, published 2022).

Tests used:
[1] = tested on: ENR+CD organoids (ISC to Paneth cell differentiation); experiment: Primary screen: basal (non-stimulated) lysozyme secretion LYZ.NS, 2.5-D 384-well ENR+CD organoid differentiation; type: cell-based, mouse; conditions: primary screen; for Z.LYZ.NS: standard z score
From the text: (§1) High-throughput screening.

[2] = tested on: ENR+CD organoids (ISC to Paneth cell differentiation); experiment: Primary screen: CCh-stimulated lysozyme secretion LYZ.S, 2.5-D 384-well ENR+CD organoid differentiation; type: cell-based, mouse; conditions: primary screen
From the text: as §1

ENR+CD organoids = experiment: Primary screen: ATP (CellTiter-Glo 3D, CTG) cell number/viability, 2.5-D 384-well ENR+CD organoids; conditions: primary screen; for Z.CTG: standard z score;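 on all read-outs here: compounds given at plating and again on day 3 over a 6-day differentiation from ENR+CV stem-cell-enriched precursors, ATP measured on day 6, plate median as control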
[3] = dose 0.08 uM, FC vs plate median
[4] = dose 0.40 uM, FC vs plate median
[5] = dose 2.00 uM, FC vs plate median
[6] = dose 10.00 uM, FC vs plate median
[7] = dose 0.08 uM, FC relative to plate median
[8] = dose 0.40 uM, FC relative to plate median
[9] = dose 2.00 uM, FC relative to plate median
[10] = dose 10.00 uM, FC relative to plate median

Cc1cc(Nc2cc(CN3CCOCC3)c3nc(C)c(Cc4ccc(Cl)cc4F)n3n2)n[nH]1 [LY2784544]
Dose.FC.LYZ.NS (log2 fold change) ([1]; dose 0.08 uM): 0.132 | Z.LYZ.NS (standard z score) ([1]; dose 0.08 uM): 1.152 | Dose.FC.LYZ.NS (log2 fold change) ([1]; dose 0.40 uM): 0.004 | Z.LYZ.NS (standard z score) ([1]; dose 0.40 uM): 0.033 | Dose.FC.LYZ.NS (log2 fold change) ([1]; dose 2.00 uM): 0.068 | Z.LYZ.NS (standard z score) ([1]; dose 2.00 uM): 0.591 | Dose.FC.LYZ.NS (log2 fold change) ([1]; dose 10.00 uM): −0.280 | Z.LYZ.NS (standard z score) ([1]; dose 10.00 uM): −2.439 | Dose.FC.LYZ.S (log2 fold change) ([2]; dose 0.08 uM): 0.123 | Dose.FC.LYZ.S (log2 fold change) ([2]; dose 0.40 uM): 0.077 | Dose.FC.LYZ.S (log2 fold change) ([2]; dose 2.00 uM): 0.114 | Dose.FC.LYZ.S (log2 fold change) ([2]; dose 10.00 uM): −0.367 | Dose.FC.CTG (log2 fold change) (ENR+CD organoids; dose 0.08 uM): 0.108 | Z.CTG (standard z score) (ENR+CD organoids; dose 0.08 uM): 0.259 | Dose.FC.CTG (log2 fold change) (ENR+CD organoids; dose 0.40 uM): 0.062 | Z.CTG (standard z score) (ENR+CD organoids; dose 0.40 uM): 0.148 | Dose.FC.CTG (log2 fold change) (ENR+CD organoids; dose 2.00 uM): 0.181 | Z.CTG (standard z score) (ENR+CD organoids; dose 2.00 uM): 0.433 | Dose.FC.CTG (log2 fold change) (ENR+CD organoids; dose 10.00 uM): −0.831 | Z.CTG (standard z score) (ENR+CD organoids; dose 10.00 uM): −1.984

Cc1ccc(S(=O)(=O)c2ccc([N+](=O)[O-])o2)cc1 [NSC697923]
Z.LYZ.NS ([1]; dose 0.08 uM): 0.789 | Z.LYZ.NS ([1]; dose 0.40 uM): 0.441 | Z.LYZ.NS ([1]; dose 2.00 uM): −0.906 | Z.LYZ.NS ([1]; dose 10.00 uM): −1.338 | Dose.FC.LYZ.NS [1, 3]: 0.091 log2 fold change | Dose.FC.LYZ.NS [1, 4]: 0.051 log2 fold change | Dose.FC.LYZ.NS [1, 5]: −0.104 log2 fold change | Dose.FC.LYZ.NS [1, 6]: −0.154 log2 fold change | Dose.FC.LYZ.S [2, 3]: 0.036 log2 fold change | Dose.FC.LYZ.S [2, 4]: 0.108 log2 fold change | Dose.FC.LYZ.S [2, 5]: −0.154 log2 fold change | Dose.FC.LYZ.S [2, 6]: −0.270 log2 fold change | Z.CTG (ENR+CD organoids; dose 0.08 uM): −0.123 | Z.CTG (ENR+CD organoids; dose 0.40 uM): −0.033 | Z.CTG (ENR+CD organoids; dose 2.00 uM): −0.241 | Z.CTG (ENR+CD organoids; dose 10.00 uM): −1.867 | Dose.FC.CTG (ENR+CD organoids; [3]): −0.052 log2 fold change | Dose.FC.CTG (ENR+CD organoids; [4]): −0.014 log2 fold change | Dose.FC.CTG (ENR+CD organoids; [5]): −0.101 log2 fold change | Dose.FC.CTG (ENR+CD organoids; [6]): −0.782 log2 fold change

COc1nc(C)cnc1NS(=O)(=O)c1cccnc1-c1ccc(-c2nnco2)cc1 [Zibotentan (ZD4054)]
Dose.FC.LYZ.NS ([1]; dose 0.08 uM): 0.094 log2 fold change | Z.LYZ.NS (standard z score) ([1]; dose 0.08 uM): 0.820 | Dose.FC.LYZ.NS ([1]; dose 0.40 uM): 0.054 log2 fold change | Z.LYZ.NS (standard z score) ([1]; dose 0.40 uM): 0.474 | Dose.FC.LYZ.NS ([1]; dose 2.00 uM): −0.003 log2 fold change | Z.LYZ.NS (standard z score) ([1]; dose 2.00 uM): −0.029 | Dose.FC.LYZ.NS ([1]; dose 10.00 uM): 0.101 log2 fold change | Z.LYZ.NS (standard z score) ([1]; dose 10.00 uM): 0.877 | Dose.FC.LYZ.S ([2]; dose 0.08 uM): 0.168 log2 fold change | Dose.FC.LYZ.S ([2]; dose 0.40 uM): 0.130 log2 fold change | Dose.FC.LYZ.S ([2]; dose 2.00 uM): −0.038 log2 fold change | Dose.FC.LYZ.S ([2]; dose 10.00 uM): 0.050 log2 fold change | Dose.FC.CTG (ENR+CD organoids; dose 0.08 uM): 0.104 log2 fold change | Z.CTG (standard z score) (ENR+CD organoids; dose 0.08 uM): 0.249 | Dose.FC.CTG (ENR+CD organoids; dose 0.40 uM): −0.009 log2 fold change | Z.CTG (standard z score) (ENR+CD organoids; dose 0.40 uM): −0.022 | Dose.FC.CTG (ENR+CD organoids; dose 2.00 uM): −0.768 log2 fold change | Z.CTG (standard z score) (ENR+CD organoids; dose 2.00 uM): −1.834 | Dose.FC.CTG (ENR+CD organoids; dose 10.00 uM): −0.001 log2 fold change | Z.CTG (standard z score) (ENR+CD organoids; dose 10.00 uM): −0.003

Cc1cc(OCCCS(C)(=O)=O)cc(C)c1-c1cccc(COc2ccc3c(c2)OC[C@H]3CC(=O)O)c1 [TAK-875]
Dose.FC.LYZ.NS [1, 7]: 0.096 log2 fold change | Z.LYZ.NS ([1]; dose 0.08 uM): 0.839 | Dose.FC.LYZ.NS [1, 8]: 0.023 log2 fold change | Z.LYZ.NS ([1]; dose 0.40 uM): 0.199 | Dose.FC.LYZ.NS [1, 9]: −0.043 log2 fold change | Z.LYZ.NS ([1]; dose 2.00 uM): −0.378 | Dose.FC.LYZ.NS [1, 10]: −0.138 log2 fold change | Z.LYZ.NS ([1]; dose 10.00 uM): −1.199 | Dose.FC.LYZ.S [2, 7]: 0.212 log2 fold change | Dose.FC.LYZ.S [2, 8]: 0.014 log2 fold change | Dose.FC.LYZ.S [2, 9]: −0.031 log2 fold change | Dose.FC.LYZ.S [2, 10]: −0.060 log2 fold change | Dose.FC.CTG (ENR+CD organoids; [7]): 0.239 log2 fold change | Dose.FC.CTG (ENR+CD organoids; [8]): −0.164 log2 fold change | Dose.FC.CTG (ENR+CD organoids; [9]): −0.157 log2 fold change | Dose.FC.CTG (ENR+CD organoids; [10]): −0.291 log2 fold change

O=C(Nc1cccnc1)N1CCC(Cc2cccc(Oc3ccc(C(F)(F)F)cn3)c2)CC1 [PF-3845]
Z.LYZ.NS ([1]; dose 0.08 uM): 0.532 | Z.LYZ.NS ([1]; dose 0.40 uM): −0.668 | Z.LYZ.NS ([1]; dose 2.00 uM): −0.131 | Z.LYZ.NS ([1]; dose 10.00 uM): −1.137 | Dose.FC.LYZ.NS [1, 3]: 0.061 log2 fold change | Dose.FC.LYZ.NS [1, 4]: −0.077 log2 fold change | Dose.FC.LYZ.NS [1, 5]: −0.015 log2 fold change | Dose.FC.LYZ.NS [1, 6]: −0.131 log2 fold change | Dose.FC.LYZ.S [2, 3]: 0.027 log2 fold change | Dose.FC.LYZ.S [2, 4]: −0.061 log2 fold change | Dose.FC.LYZ.S [2, 5]: −0.032 log2 fold change | Dose.FC.LYZ.S [2, 6]: −0.195 log2 fold change | Z.CTG (ENR+CD organoids; dose 0.08 uM): −0.112 | Z.CTG (ENR+CD organoids; dose 0.40 uM): 0.125 | Z.CTG (ENR+CD organoids; dose 2.00 uM): −0.246 | Z.CTG (ENR+CD organoids; dose 10.00 uM): −0.684 | Dose.FC.CTG (ENR+CD organoids; [3]): −0.047 log2 fold change | Dose.FC.CTG (ENR+CD organoids; [4]): 0.052 log2 fold change | Dose.FC.CTG (ENR+CD organoids; [5]): −0.103 log2 fold change | Dose.FC.CTG (ENR+CD organoids; [6]): −0.286 log2 fold change
